The values below come from patent publication US6462184B2, “Compounds, processes and intermediates for synthesis of mixed backbone oligomeric compounds” (ISIS Pharmaceuticals, Inc., priority 1999, dated 2002).

[PN] = dimethylaminoethyl (DMAE) phosphoramidate internucleoside linkage; e = 2'-O-(2-methoxyethyl) (MOE); d = 2'-deoxy (DNA)

Series [1] concerns c-raf mRNA. Nature of the series: c-raf mRNA expression in A549 cells. It counts as cell-based, human. Conditions: between 50-400 nM range. Here is the method:
Gapmers designed in this study are based on the parent sequence of ATGCATTCTGCCCCCAAGGA (SEQ ID No:9) which is a uniform deoxy phosphorothioate. This sequence is an antisense oligomeric compound targeted to mouse c-raf. c-raf m-RNA expression assay was carried out according to a reported procedure (Monia et al., Nature Medicinek, 1996, 2, 668). Human A549 lung carcinoma cells were obtained from the American Type Tissue Collection. These were grown in Dulbecco's modified Eagle's medium containing 1 g of glucose/liter (DMEM) and FCS (10%) and routinely passaged when 90-95% confluent.
Assay for Oligonucleoside Inhibition of c-raf Protein Synthesis: A549 cells were plated in 6-well plates (Falcon Labware, Lincoln Park, N.J.) and 24-48 hours later (when 80-90% confluent) treated with 1 μM phorbol 12,13-dibutyrate (PDBu) for 18 hours. This procedure removes greater than 75% of immunoreactive c-rafprotein from the cells. Cells were then washed three times with DMEM (3 mL) (to remove PDBu), and DMEM (1 mL) containing DOTMA/DOPE solution (20 μg/mL, LipofectinR, Bethesda Research Laboratories) was added. Oligonucleoside gapmers were then added to the required concentration (for our initial screen, 1 μM) from a 10 μM stock solution, and the two solutions were mixed by swirling of the dish. The cells were incubated at 37° C. for 4 hours, washed once with DMEM+FCS (10%) to remove the DOTMA/DOPE solution, and then additional DMEM (3 mL)+10% FCS was added and the cells were allowed to recover for another 10 hours. Total RNA is prepared 24 hours after the experiment and analyzed for c-raf and G3PDH mRNA levels after normalization to G3PDH mRNA.

In series [2] the test system is ICAM-1. Nature of the series: ICAM-1 expression in HUVEC cells (flow cytometry). It counts as cell-based, human. Here is the method: Targeted oligomeric compounds were prepared and assayed using HUVEC cells to determine their ability to inhibit the expression of ICAM-1. HUVEC cells were washed three times with Opti-MEM (Life Technologies, Inc.) that was prewarmed to 37° C. Oligomeric compounds were premixed with Lipofectin (10 μg/mL, Life Technologies, Inc.) in Opti-MEM, serially diluted to the desired concentrations, and applied to washed cells. Basal and untreated (no oligomeric compounds added) control cells were also treated with Lipofectin. Cells were incubated for 4 hours at 37° C., at which time the medium was removed and replaced with standard growth medium with or without TNF-a ([…], R&D Systems). Incubation at 37° C. was continued for different times as indicated below.
A fluorescence-activated cell sorter was used to quantitate ICAM-1 protein expression. The cells were removed from the plate surface by brief trypsinization with trypsin (0.25%) in PBS. Trypsin activity was quenched with a solution of bovine serum albumin (2%) and sodium azide (0.2%) in PBS (+Mg/Ca). […]
Expression of cell surface ICAM-1 was determined by flow cytometry using a Becton Dickinson FACScan. The percentage of ICAM-1 expression in the control was calculated as follows: [(oligomeric compound-treated ICAM-1 value)−(basal ICAM-1 value)/(non-treated ICAM-1 value)−(basal ICAM-1 value))].

As for “T*NT*NT*S GSASCS ASCSGS GSCSAS CSCSAS T*ST*NT*N T* (antisense TTTGACACGGCACCATTTT; sugars from the 5' end e3 d12 e4, linkages [PN]2 s14 [PN]2 (s phosphorothioate, o phosphodiester), methylation of C not given here) [SEQ ID No 4, 2'-MOE gapmer with PN-PS-PN mixed backbone, 19-mer]”, the “c-raf mRNA expression inhibition” value in series [1] was “dose dependent manner”. “A*NT*NG* C*A*T*S TSCSTS GSCSCS CSCSC* A*A*G*N G*NA* (antisense ATGCATTCTGCCCCCAAGGA; 2'-MOE gapmer, mixed PN/PO/PS backbone, chemistry not fully specified) [SEQ ID No 11, 2'-MOE gapmer with PN-PO-PS-PO-PN mixed backbone, 20-mer]”: in series [2] (HUVEC cells (printed HWEC), compound synthesized by amidite chemistry and same compound by H-phosphonate chemistry), the “controlling ICAM-1 expression” value was “efficacious”. Moreover, the “inhibiting ICAM-1 expression” value in series [2] (between 3 and 100 nM range, both compounds synthesized from different chemistries) was “display dose response”.

Take “A*NT*NG* C*A*T*S TSCSTS GSCSCS CSCSC* A*A*G* G*A* (antisense ATGCATTCTGCCCCCAAGGA; sugars from the 5' end e6 d8 e6, linkages [PN]2 o3 s9 o5 (s phosphorothioate, o phosphodiester), methylation of C not given here) [SEQ ID No 10, 2'-MOE gapmer with PN-PO-PS-PO mixed backbone, 20-mer]”: in series [1], the “c-raf mRNA expression inhibition” value is “dose dependent manner”. Consider “A*T*G* C*A*T*S TSCSTS GSCSCS CSCSC* A*A*G* G*A* (antisense ATGCATTCTGCCCCCAAGGA; 2'-MOE gapmer with mixed PO/PS backbone, marks not given here, further chemistry not given here) [SEQ ID No 9, 2'-MOE gapmer with PO-PS-PO mixed backbone, 20-mer, antisense to c-raf]”, for which the “c-raf mRNA expression inhibition” value in series [1] was “dose dependent manner”.
